Patent publication US10952436B2, “Microbiocidal quinoline (thio)carboxamide derivatives” (SYNGENTA PARTICIPATIONS AG, priority 2017, dated 2021)

Assays:
[1] = tested on: Glomerella lagenarium (Colletotrichum lagenarium); test: Glomerella lagenarium (Colletotrichum lagenarium)/Liquid Culture (Anthracnose); type: cell-based; conditions: Colletotrichum orbiculare; 200 ppm; liquid culture, compared to untreated control, 3-4 days after application; read-out: control of Glomerella lagenarium
Fusarium culmorum [2] = test: microbe, parasite or virus in culture; type: cell-based; conditions: read-out: control of Fusarium culmorum
Fusarium culmorum [3] = test: whole plant or invertebrate; type: in vivo; conditions: in Triticum aestivum, read-out: control of Fusarium culmorum
[4] = tested on: Botryotinia fuckeliana (Botrytis cinerea); test: Botryotinia fuckeliana (Botrytis cinerea)/Liquid Culture (Gray Mould); type: cell-based; conditions: 200 ppm, liquid culture, compared to untreated control, 3-4 days after application, read-out: control of Botryotinia fuckeliana
Gaeumannomyces graminis = test: Gaeumannomyces graminis/Liquid Culture (Take-all of Cereals); type: cell-based; conditions: 200 ppm, liquid culture, compared to untreated control, 4-5 days after application, read-out: control of Gaeumannomyces graminis
[5] = tested on: Monographella nivalis (Microdochium nivale); test: Monographella nivalis (Microdochium nivale)/Liquid Culture (Foot Rot Cereals); type: cell-based; conditions: 200 ppm, liquid culture, compared to untreated control, 4-5 days after application, read-out: control of Monographella nivalis
[6] = tested on: Magnaporthe grisea (Pyricularia oryzae); test: microbe, parasite or virus in culture; type: cell-based; conditions: read-out: control of Magnaporthe grisea
Sclerotinia sclerotiorum = test: Sclerotinia sclerotiorum/Liquid Culture (Cottony Rot); conditions: read-out: control of Sclerotinia sclerotiorum
Description: Mycelia fragments of a newly grown liquid culture of the fungus are directly mixed into nutrient broth (Vogels broth). After placing a (DMSO) solution of test compound into a microtiter plate (96-well format) the nutrient broth containing the fungal material is added. The test plates are incubated at 24° C. and the inhibition of growth is determined photometrically 3-4 days after application.

[7] = tested on: Magnaporthe grisea (Pyricularia oryzae); test: whole plant or invertebrate; type: in vivo; conditions: foliar, read-out: control of Magnaporthe grisea

SMILES	inhibition of growth at 200 ppm [1] [%]	inhibition of growth at 200 ppm (Fusarium culmorum [2]) [%]	pest or weed control at 200 ppm (Fusarium culmorum [3]) [%]	inhibition of growth at 200 ppm [4] [%]	inhibition of growth at 200 ppm (Gaeumannomyces graminis) [%]	inhibition of growth at 200 ppm [5] [%]	inhibition of growth at 200 ppm [6] [%]	melting point [°C]	inhibition of growth at 20 ppm (Sclerotinia sclerotiorum) [%]	pest or weed control at 200 ppm [7] [%]
CC(C)(Cc1ccccc1)C(=O)Nc1cnc2c(F)cccc2c1 [Compound E-69, N-(8-fluoro-3-quinolyl)-2,2-dimethyl-3-phenyl-propanamide]	≥ 80	≥ 80	≥ 80	≥ 80	≥ 80	≥ 80	–	–	–	–
CC(Cc1ccccc1)(CC1CC1(F)F)C(=O)Nc1cnc2c(F)cccc2c1 (centres unmarked) [Compound E-72, 2-benzyl-3-(2,2-difluorocyclopropyl)-N-(8-fluoro-3-quinolyl)-2-methyl-propanamide]	≥ 80	≥ 80	–	≥ 80	≥ 80	≥ 80	≥ 80	–	–	–
CC(Cc1ccccc1)(CC1CC1(Cl)Cl)C(=O)Nc1cnc2c(F)cccc2c1 (centres unmarked) [Compound E-75, 2-benzyl-3-(2,2-dichlorocyclopropyl)-N-(8-fluoro-3-quinolyl)-2-methyl-propanamide]	≥ 80	≥ 80	–	≥ 80	≥ 80	–	≥ 80	–	–	–
CCCC(C)(Cc1ccccc1)C(=O)Nc1cnc2c(F)cccc2c1 (centres unmarked) [Compound E-77, 2-benzyl-N-(8-fluoro-3-quinolyl)-2-methyl-pentanamide]	≥ 80	≥ 80	≥ 80	≥ 80	≥ 80	≥ 80	≥ 80	–	–	–
CC1(C[C@](C)(Cc2ccccc2)C(=O)Nc2cnc3c(F)cccc3c2)CC1 [Compound F-9, (2R)-2-benzyl-N-(8-fluoro-3-quinolyl)-2-methyl-3-(1-methylcyclopropyl) propanamide]	≥ 80	≥ 80	≥ 80	≥ 80	–	≥ 80	≥ 80	62 to 64	≥ 80	≥ 80
Cc1nc2c(F)cccc2cc1NC(=O)[C@](C)(Cc1ccccc1)CC(F)(F)F [Compound F-11, (2R)-2-benzyl-4,4,4-trifluoro-N-(8-fluoro-2-methyl-3-quinolyl)-2-methyl-butanamide]	≥ 80	≥ 80	≥ 80	≥ 80	–	–	≥ 80	137 to 139	≥ 80	≥ 80
Cc1nc2c(F)cccc2cc1NC(=O)[C@@](C)(Cc1ccccc1)CC(F)(F)F [Compound F-12, (2S)-2-benzyl-4,4,4-trifluoro-N-(8-fluoro-2-methyl-3-quinolyl)-2-methyl-butanamide]	≥ 80	≥ 80	≥ 80	≥ 80	–	≥ 80	≥ 80	135 to 136	≥ 80	≥ 80
CC(C)C[C@@](C)(Cc1ccccc1)C(=O)Nc1cnc2c(F)cccc2c1 [Compound F-20, (2S)-2-benzyl-N-(8-fluoro-3-quinolyl)-2,4-dimethyl-pentanamide]	≥ 80	≥ 80	≥ 80	≥ 80	≥ 80	≥ 80	–	–	–	–
